Reference: article PMC6677016, “Biochemical and structural explorations of α-hydroxyacid oxidases reveal a four-electron oxidative decarboxylation reaction” (Acta Crystallographica. Section D, Structural Biology, 2019)
One block for each molecule: values may come before it.

How the values were obtained:
[1] = biological target: T1, p-Hydroxymandelate oxidase (Hmo) (Amycolatopsis orientalis, UniProt O52792); experiment: crystal structure ([…] Å); type: binding
T1 construct: N-terminally His6-tagged protein

[2] = biological target: T1, p-Hydroxymandelate oxidase (Hmo); experiment: crystal structure ([…] Å); type: binding; remark: listed apart in the source
[3] = biological target: T1, p-Hydroxymandelate oxidase (Hmo); experiment: crystal structure ([…] Å) and ITC; type: binding
[4] = biological target: T2, p-Hydroxymandelate oxidase (Hmo) Y128F mutant (Amycolatopsis orientalis, UniProt O52792, Y128F); experiment: crystal structure ([…] Å) and ITC; type: binding
T2 construct: N-terminally His6-tagged protein
T2 sequence (O52792 1-357 Y128F): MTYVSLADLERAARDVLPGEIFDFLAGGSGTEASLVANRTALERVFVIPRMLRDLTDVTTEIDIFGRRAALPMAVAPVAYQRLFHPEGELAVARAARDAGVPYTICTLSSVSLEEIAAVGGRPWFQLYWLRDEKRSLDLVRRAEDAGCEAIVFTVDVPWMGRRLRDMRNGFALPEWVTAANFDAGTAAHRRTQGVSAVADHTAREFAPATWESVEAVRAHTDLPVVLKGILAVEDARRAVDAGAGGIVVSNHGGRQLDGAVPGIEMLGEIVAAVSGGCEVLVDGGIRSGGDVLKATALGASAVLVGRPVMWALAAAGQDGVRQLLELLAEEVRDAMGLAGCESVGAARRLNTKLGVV

[5] = biological target: T2, p-Hydroxymandelate oxidase (Hmo) Y128F mutant; experiment: crystal structure ([…] Å); type: binding
[6] = biological target: T2, p-Hydroxymandelate oxidase (Hmo) Y128F mutant; experiment: crystal structure ([…] Å); type: binding; remark: listed apart in the source
[7] = biological target: T1, p-Hydroxymandelate oxidase (Hmo); experiment: crystal structure ([…] Å); type: binding; remark: listed apart in the source
[8] = biological target: T2, p-Hydroxymandelate oxidase (Hmo) Y128F mutant; experiment: crystal structure ([…] Å); type: binding; remark: listed apart in the source
purified protein = substrate: O=C(O)[C@@H](O)c1ccccc1; experiment: purified protein; details: FMN anchored by Tyr128, Arg163, His252 and Arg255; α-H points towards N5 of the isoalloxazine ring
[9] = biological target: the molecule itself; experiment: crystal structure; hanging-drop vapor diffusion at 20°C, 35% Tascimate, 0.1 M bis-Tris propane pH 7.0; space group I422, one chain in the asymmetric unit, dimer by a crystallographic twofold axis

Molecule: O=C(O)[C@@H](O)c1ccc(O)cc1 [4HSMA, 4-hydroxy-(S)-mandelate]
crystal structure (1.32 Å) [1]: complex with 4-hydroxy-(S)-mandelate, 5zzq

crystal structure (1.40 Å) [2]: complex with benzoate, 5zzs
Molecule: O=C(O)c1ccccc1 [BA, benzoate]

Molecule: O=C(O)C(=O)c1ccccc1 [BF, benzoylformate]
Kd [3]: 1.9 mM | Kd [4]: 1.4 mM

Molecule: O=C(O)C(=O)Cc1ccccc1 [PPY, phenylpyruvate]
crystal structure (1.45 Å) [5]: The Y128F mutant liganded with phenylpyruvate, an oxidized product, when soaked with phenyllactate

Molecule: O=C(O)[C@H](O)c1ccccc1 [RMA, (R)-mandelate]
crystal structure (1.50 Å) [6]: When the Y128F mutant is bound by (R)-mandelate, the structural conformation is similar to that of (S)-mandelate

Molecule: C[C@H](C(=O)O)c1ccccc1 [SPPA, (S)-2-phenylpropionate]
crystal structure (1.60 Å) [7]: (S)-2-phenylpropionate (inhibitor) all adopt a ‘V’ conformation with the carboxyl group orthogonal to the plane of the phenyl ring | crystal structure (1.65 Å) [8]: complex with 2-phenylpropanoate, 6a0d

B1: p-Hydroxymandelate oxidase (Hmo) from Amycolatopsis orientalis, wild type (enzyme)
chain: MTYVSLADLERAARDVLPGEIFDFLAGGSGTEASLVANRTALERVFVIPRMLRDLTDVTTEIDIFGRRAALPMAVAPVAYQRLFHPEGELAVARAARDAGVPYTICTLSSVSLEEIAAVGGRPWFQLYWLRDEKRSLDLVRRAEDAGCEAIVFTVDVPWMGRRLRDMRNGFALPEWVTAANFDAGTAAHRRTQGVSAVADHTAREFAPATWESVEAVRAHTDLPVVLKGILAVEDARRAVDAGAGGIVVSNHGGRQLDGAVPGIEMLGEIVAAVSGGCEVLVDGGIRSGGDVLKATALGASAVLVGRPVMWALAAAGQDGVRQLLELLAEEVRDAMGLAGCESVGAARRLNTKLGVV
notes: p-hydroxymandelate oxidase (Hmo, orf22), amplified from Amycolatopsis orientalis genomic DNA and subcloned into pET-28a(+) (NdeI/XhoI); one chain in the asymmetric unit, the dimer made by a crystallographic twofold axis; also called (S)-p-hydroxymandelate oxidase; WT Hmo; source: E. coli BL21(DE3), purified (Ni-NTA, size-exclusion chromatography)
Km (purified protein): 160 µM | stoichiometry N [9]: 2

B2: p-Hydroxymandelate oxidase (Hmo) Y128F mutant (enzyme, Amycolatopsis orientalis)
chain: MTYVSLADLERAARDVLPGEIFDFLAGGSGTEASLVANRTALERVFVIPRMLRDLTDVTTEIDIFGRRAALPMAVAPVAYQRLFHPEGELAVARAARDAGVPYTICTLSSVSLEEIAAVGGRPWFQLFWLRDEKRSLDLVRRAEDAGCEAIVFTVDVPWMGRRLRDMRNGFALPEWVTAANFDAGTAAHRRTQGVSAVADHTAREFAPATWESVEAVRAHTDLPVVLKGILAVEDARRAVDAGAGGIVVSNHGGRQLDGAVPGIEMLGEIVAAVSGGCEVLVDGGIRSGGDVLKATALGASAVLVGRPVMWALAAAGQDGVRQLLELLAEEVRDAMGLAGCESVGAARRLNTKLGVV
notes: p-hydroxymandelate oxidase (Hmo, orf22) of Amycolatopsis orientalis in pET-28a(+), point mutant made by QuikChange on the wild-type hmo gene; Purified by the same protocol as wild-type Hmo; source: E. coli BL21(DE3), purified (Ni-NTA, size-exclusion chromatography)
stoichiometry N [9]: 2
